The test system of one experiment is A549 cells. Description: Growth/viability of A549 lung cancer cells in culture (cell count). In kind it is cell-based, human. Also on record: key to Anti-tumour effect: + [inhibition of growth]; ++ [total halt of growth]; +++ [total removal of tumour cells]. Particulars: for IC50: concentration that reduces the number of cells to half. The gist of the method: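 A549 cells were grown in RPMI with 10% serum at 37 °C under 5% CO2 and exposed to fatty-acid derivatives at 0–400 μM, or at 150 μM for 48 h. Cell number was counted by flow cytometry and expressed as percent of untreated control.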

A further experiment relates to hypertensive rats. The experiment can be described thus: Arterial pressure in hypertensive rats after 8-day treatment (Table 5). The note with it: arterial pressure, hypertensive rats, 8-day treatment, 400 mg/kg oral. In kind it is in vivo, rat.
Experiment [1] can be described thus: Rat obesity induced by cafeteria diet, preventative pre-treatment (Table 3). The class given is in vivo, Wistar Kyoto rats. The note with it: 300 mg/kg oral, after two weeks on cafeteria diet; obese control 308 ± 17, lean control 280 ± 16; * lower than obese controls, ‡ indistinguishable. The gist of the method: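 Groups of 6 female Wistar Kyoto rats (250-300 g) received oral pre-treatment with 300 mg/kg fatty acid or vehicle during 2 weeks on standard diet. Dosing continued for two further weeks on cafeteria diet, with lean and obese vehicle controls. Body-weight gain was the read-out.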

Experiment [2] in a line: Levels of cholesterol, triglycerides and glucose in rats after oral treatment. In kind it is in vivo, rat. The note with it: for % control CHO (cholesterol) / % control TG (triglycerides): rats, daily dose of 600 mg/kg oral, untreated controls = 100%. The gist of the method: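 Rats received vehicle or fatty acid at 0, 200, 400 or 600 mg/kg (single-dose comparison at 600 mg/kg) orally, daily for 30 days. Blood was then sampled and serum cholesterol, triglycerides and glucose were measured by standard colorimetric methods. Values are means of 6 animals per group.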

A short description of experiment [3]: Body weight of rats on cafeteria diet, no pre-treatment (Table 5). The class given is in vivo, rat. The note with it: cafeteria diet for 2 weeks, 300 mg/kg daily oral, no pre-treatment. From the text:
The weight of treated animals was statistically less than the weight of obese control rats and statistically indistinguishable from that of lean control rats.

Another experiment has as its system SF767 human tumour cells. Description: Growth of SF767 tumour cells in culture. Particulars: for IC50: concentration that reduces the number of cells to half. In kind it is cell-based. On the set-up: key to Anti-tumour effect: + [inhibition of growth]; ++ [total halt of growth]; +++ [total removal of tumour cells]; key to Mechanism of action: P [anti-proliferative]; D [differentiation]; A [apoptosis].

Where [4] appears, read: OHOD 200, 400, 600 mg/kg oral daily, 30 days, Sprague-Dawley rats, p<0.05.

Turning to `CCCCCCCC/C=C\CCCCCCC(O)C(=O)O` (stereo not drawn) [OHOD, α-Hydroxy-cis-Δ9-octadecenoic], in the experiment with A549 cells (A549, Lung), the Anti-tumour effect result was “+++” and the Mechanism of action result is reported as “P D”. The “effect on tumour cells at 200 to 400 μM” value with A549 cells (Doses of 200 to 400 μM, A549) is “total elimination of tumour cells”. Besides, in the experiment on A549 cells, the IC50 amounted to 62 µM. For the same molecule, the “PA (control 214 mmHg)” value with hypertensive rats was determined as 146 mmHg. In addition, the Final weight in experiment [1] is recorded as 284 ± 13* g. Further, in experiment [2] (setting [4]), the cholesterol levels entry is “significant reductions”, the glucose levels entry is on record as “significant reductions” and the triglycerides levels entry is listed as “significant reductions”. Besides, in experiment [2], the “% control CHO (cholesterol)” value turned out to be 55 % control and the “% control TG (triglycerides)” value worked out at 38 % control. For the same molecule, in experiment [3], the “Body weight (g) (control = 311 g)” value is given as 292 g. Besides, in the experiment on SF767 human tumour cells (SF-767, Glioma), the Anti-tumour effect result is recorded as “++” and the Mechanism of action entry is on record as “D”. In addition, the IC50 in the experiment on SF767 human tumour cells was 71 µM.
For the molecule `CCCCCCCC/C=C\CCCCCCC(O)C(=O)[O-].[Na+]` (stereo not shown) [Na-OHOD], in the experiment with A549 cells, the IC50 is 47 µM. Besides, the “PA (control 214 mmHg)” value in the experiment on hypertensive rats is reported as 128 mmHg. Moreover, in experiment [2], the “% control CHO (cholesterol)” value came to 51 % control and the “% control TG (triglycerides)” value stood at 32 % control. Moreover, the “Body weight (g) (control = 311 g)” value in experiment [3] stood at 281 g. Moreover, the IC50 in the experiment on SF767 human tumour cells was 52 µM.
Turning to `CCCCCCCC/C=C\CCCCCCC(OC)C(=O)O` (stereo not drawn) [MOOD, α-Methoxy-cis-Δ9-octadecenoic], the IC50 in the experiment on A549 cells is 61 µM. Moreover, in the experiment with hypertensive rats, the “PA (control 214 mmHg)” value was 142 mmHg. For the same molecule, in experiment [1], the Final weight is given as 263 ± 22* g. Also, in experiment [2], the “% control CHO (cholesterol)” value is 65 % control and the “% control TG (triglycerides)” value was determined as 64 % control. Also, the “Body weight (g) (control = 311 g)” value in experiment [3] came out at 279 g. In addition, in the experiment with SF767 human tumour cells, the concentration for half-maximal inhibition (IC50) is 73 µM.

Broadly, the IC50 is the concentration that gives 50% inhibition.

The values are drawn from patent US9730906B2, “α-derivatives of cis-monounsaturated fatty acids for use as medicines” (UNIVERSITAT DE LES ILLES BALEARS, priority 2008, dated 2017).
